Reference: patent publication US20260250325A1, “Antiviral Polypeptide Membrane Fusion Inhibitor, and Preparation Method and Application Thereof” (priority 2025, published 2026)
Where a SMILES comes first, the peptide text is derived from it. The star is where a group is joined. Succinyl(4-O-cholesteryl) = CC(C)CCC[C@@H](C)[C@H]1CC[C@H]2[C@@H]3CC=C4C[C@@H](OC(=O)CCC(=O)*)CC[C@]4(C)[C@H]3CC[C@]12C

Columns and labels:
[1] = target: T1, hPIV-N51 (139-189) (Human parainfluenza 3 virus, UniProt P06828); assay: SPR affinity to hPIV-N51 coupled on CM5 chip; assay type: binding
T1 construct: hPIV-N51 (139-189)
T1 sequence (P06828 139-189): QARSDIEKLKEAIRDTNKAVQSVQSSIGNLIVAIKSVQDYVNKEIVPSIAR
Description: (§1) hMPV and hPIV were two viruses having a typical Class I fusion protein-F protein. An F protein precursor F0 was cracked into F1 and F2 subunits. […] When the compound flowed through a chip surface, changes in an SPR signal were monitored in real time, binding and dissociation processes were recorded, and a binding rate constant (ka) and a dissociation rate constant (kd) were further obtained through kinetic analysis, thereby calculating an equilibrium dissociation constant (KD=kd/ka).
(§2) A CM5 chip with a catalog number 29149603, an amino coupling reagent kit with a catalog number BR100050, HBS-EP+Buffer (10×), sodium acetate (pH 4.0), and a 10 mM glycine-HCl buffer (pH 2.0) were all purchased from GE Health.
(§3) CM5 chip coupling: Channels 2 and 4 of the CM5 chip were activated for 7 min by using a freshly-prepared mixture of 50 mM Hydroxy succinimide (NHS) and 200 mM 1-(3-Dimethylaminopropyl)-3-ethylcarbodiimide (EDC) according to 1:1; and then, hMPV-N46 or hPIV-N51 was diluted and dissolved with sodium acetate with 4.0 pH to a concentration of 30 μM, with a flow rate of 10 μl/min and time of 600 s. An experimental buffer was HBS-EP+buffer (1×). Finally, the chip was blocked with 1 M ethanolamine. The instrument was set to a temperature of 25° C.
(§4) Affinity detection: the buffer used in the experiment was HBS-EP+buffer (1×), and a multi-cycle dynamic mode was used. Channels 1 and 3 of the chip served as blank reference channels; polypeptides to be detected sequentially flowed through Channels 2 and 4 at concentrations of 0 μM, 0.04 µM, 0.12 µM, 0.37 μM, 1.11 µM, 3.33 µM, 10 µM, and 30 μM; the flow rate was 30 μl/min, binding was performed for 180 s, and dissociation was performed for 120 s. Finally, the chip was regenerated by injecting 10 mM glycine (pH 2.0). The instrument was set to a temperature of 25° C.

[2] = target: T2, hMPV-N46 (127-172) (Human metapneumovirus, UniProt Q6WB98); assay: SPR affinity to hMPV-N46 coupled on CM5 chip; assay type: binding
T2 construct: hMPV-N46 (127-172)
T2 sequence (Q6WB98 127-172): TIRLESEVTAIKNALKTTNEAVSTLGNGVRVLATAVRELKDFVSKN
Description: as §1, §2, §3, §4

[3] = test system: hMPV B1; assay type: cell-based; conditions: Vero cells, plaque reduction
Description: (§5) African green monkey kidney cells (Vero) were sourced from the ATCC, with catalog number CCL-81. The cells were cultured in a DMEM culture solution in which 10% fetal bovine serum, 1% non-essential amino acids, 1% sodium pyruvate, 1% L-glutamine, 100 U/ml penicillin, and 100 μg/ml streptomycin were added.
(§6) A hMPV plaque experiment culture medium consisted of an Opti-MEM culture solution added with 1% non-essential amino acids, 100 U/mL penicillin, and 100 μg/mL streptomycin.
(§7) hMPV virus strains A2 and B1 were constructed by WuXi App Tec.
(§8) This study used a plaque reduction experiment to detect the in-vitro activity of a test sample against the hMPV virus strains A2 and B1.
(§9) The test sample and an experimental system were tested at 8 concentrations in duplicated wells. The Vero cells were digested with trypsin and then diluted to a concentration of 400,000 cells per milliliter by using a cell culture solution containing 2% serum. The diluted cells were added to a 96-well cell test board, with 100 μL per well, corresponding to 40000 cells per well. The cells were cultured overnight in a 37° C. incubator with 5% CO2.
(§10) On the second day, the test sample was diluted in an experimental culture medium at a fold ratio. The sample diluted at a fold ratio and an equal volume of virus (approximately 200 PFU per well) were well mixed and incubated at 33° C. in 5% CO2 for 1 h. Then, the culture solution in the 96-well cell test board was discarded, the sample virus mixed solution (100 μL) was added to the 96-well cell culture plate, and incubated at 37° C. in 5% CO2 for 2 hours. After 2 h, the sample virus mixed solution was discarded, 200 μL of an experiment culture medium containing the test sample with a corresponding concentration was added, and the culture solution contained 0.8% CMC and 5 μg/ml trypsin. A final concentration of DMSO in the culture solution was 0.5%. A system control antibody was directly added to the experiment culture solution containing 0.8% CMC and 5 μg/ml trypsin. A cell control (cells, without compound treatment or viral infection) and a viral control (cell infection virus, without compound treatment) were set. The cells were cultured for 1 day in the 33° C. incubator with 5% CO2.
(§11) The cells were fixed with 4% paraformaldehyde, and then permeabilization was performed with 0.5% Triton X-100. After the plate was washed with DPBS, a hMPV specific antibody (1:2000 dilution) was added and incubated at 37° C. for 1.5 h. Then, a secondary antibody (1:1000 dilution) was added and incubated at 37° C. for 1 hour. The secondary antibody was discarded, a TrueBlue solution was added, dyeing was performed for approximately 10 minutes; and the plate was washed with running water and then air-dried, and the number of spots in each well was counted by using a microplate imaging counter.
(§12) Raw data was used for analyzing the antiviral activity of the test samples. A calculation formula was shown as follows.
(§13) % inhibition rate=100−(sample value-cell control average value)/(virus control average value-cell control average value)×100
(§14) Non-linear fitting analysis was performed on the inhibition rate of the sample by using GraphPad Prism (version 10), so as to calculate an EC50 value for the sample. A fitting formula was log (inhibitor) vs. response-Variable slope (four parameters).

[4] = test system: hMPV A2; assay type: cell-based; conditions: Vero cells, plaque reduction
Description: as §5, §6, §7, §8, §9, §10, §11, §12, §13, §14

Molecule	Kd [1] [nM]	Kd [2] [nM]	EC50 [3] [nM]	EC50 [4] [nM]
CC[C@H](C)[C@H](NC(=O)[C@H](CCCCN)NC(=O)[C@H](CCCCN)NC(=O)[C@H](CC(C)C)NC(=O)[C@H](CO)NC(=O)[C@H](CCC(=O)O)NC(=O)[C@H](CCC(=O)O)NC(=O)[C@@H](NC(=O)[C@H](CCCCN)NC(=O)[C@H](CCCCN)NC(=O)[C@H](CC(N)=O)NC(=O)[C@@H](NC(=O)[C@H](CCC(=O)O)NC(=O)[C@H](CCC(=O)O)NC(=O)[C@@H](NC(=O)[C@H](CCCCN)NC(=O)[C@H](CCCCN)NC(=O)[C@H](CC(=O)O)NC(=O)[C@H](Cc1ccccc1)NC(=O)[C@H](CCC(=O)O)NC(=O)[C@H](CC(=O)O)NC(=O)[C@H](CO)NC(C)=O)[C@@H](C)CC)C(C)C)[C@@H](C)CC)C(=O)N[C@@H](CCC(=O)O)C(=O)N[C@@H](CCC(=O)O)C(=O)N[C@@H](CO)C(=O)N[C@@H](CC(=O)O)C(=O)N[C@@H](CCCCN)C(=O)N[C@@H](CCCCN)C(=O)N[C@@H](CC(C)C)C(=O)N[C@@H](CCC(=O)O)C(=O)N[C@@H](C)C(=O)N[C@@H](C)C(=O)N[C@@H](C)C(=O)N[C@@H](CCCCN)C(=O)N[C@@H](CCCCNC(=O)CCC(=O)O[C@H]1CC[C@@]2(C)C(=CC[C@H]3[C@@H]4CC[C@H]([C@H](C)CCCC(C)C)[C@@]4(C)CC[C@@H]32)C1)C(N)=O [Compound 16] (Ac-SDEFDKKIEEVNKKIEESLKKIEESDKKLEAAAKK(Succinyl(4-O-cholesteryl))-NH2)	5400	3060	4.5	7.35
CC[C@H](C)[C@H](NC(=O)[C@H](CCCCN)NC(=O)[C@H](CCC(=O)O)NC(=O)[C@H](CC(C)C)NC(=O)[C@H](CO)NC(=O)[C@H](CCC(N)=O)NC(=O)[C@H](CC(N)=O)NC(=O)[C@@H](NC(=O)[C@H](CCCCN)NC(=O)[C@H](CCC(=O)O)NC(=O)[C@H](CC(N)=O)NC(=O)[C@@H](NC(=O)[C@H](CCC(N)=O)NC(=O)[C@H](CO)NC(=O)[C@H](C)NC(=O)[C@H](CC(=O)O)NC(=O)[C@H](Cc1ccccc1)NC(=O)[C@@H](NC(=O)[C@H](CC(C)C)NC(=O)[C@H](CCC(=O)O)NC(=O)[C@H](CC(=O)O)NC(=O)[C@H](Cc1ccc(O)cc1)NC(C)=O)C(C)C)C(C)C)[C@@H](C)CC)C(=O)N[C@@H](CCCNC(=N)N)C(=O)N[C@@H](CCCCN)C(=O)N[C@@H](CO)C(=O)N[C@@H](CC(=O)O)C(=O)N[C@@H](CCC(=O)O)C(=O)N[C@@H](CC(C)C)C(=O)N[C@@H](CC(C)C)C(=O)N[C@@H](Cc1c[nH]cn1)C(=O)N[C@@H](CC(N)=O)C(=O)N[C@H](C(=O)NCC(=O)N[C@@H](CO)C(=O)NCC(=O)N[C@@H](CO)C(=O)NCC(=O)N[C@@H](CCCCNC(=O)CCC(=O)O[C@H]1CC[C@@]2(C)C(=CC[C@H]3[C@@H]4CC[C@H]([C@H](C)CCCC(C)C)[C@@]4(C)CC[C@@H]32)C1)C(N)=O)C(C)C [Compound 25] (Ac-YDELVFDASQVNEKINQSLEKIRKSDELLHNVGSGSGK(Succinyl(4-O-cholesteryl))-NH2)	74600	21100	38.1	86.4
Ac-LVKKIDEFDASISQVNEKINQSLEEIRKSDELLHNVGSGSGK(Succinyl(4-O-cholesteryl))-NH2 [Compound 29]	1730	48.2	11.1	41.6
CC[C@H](C)[C@H](NC(=O)[C@H](CCCCN)NC(=O)[C@H](CCCCN)NC(=O)[C@H](CC(C)C)NC(=O)[C@H](CO)NC(=O)[C@H](CCC(=O)O)NC(=O)[C@H](CCC(=O)O)NC(=O)[C@@H](NC(=O)[C@H](CCCCN)NC(=O)[C@H](CCCCN)NC(=O)[C@H](CC(N)=O)NC(=O)[C@@H](NC(=O)[C@H](CCC(=O)O)NC(=O)[C@H](CCC(=O)O)NC(=O)[C@@H](NC(=O)[C@H](CCCCN)NC(=O)[C@H](CCCCN)NC(=O)[C@H](CC(=O)O)NC(=O)[C@H](Cc1ccccc1)NC(=O)[C@H](CCC(=O)O)NC(=O)[C@H](CC(=O)O)NC(=O)[C@H](CO)NC(C)=O)[C@@H](C)CC)C(C)C)[C@@H](C)CC)C(=O)N[C@@H](CCC(=O)O)C(=O)N[C@@H](CCC(=O)O)C(=O)N[C@@H](CO)C(=O)N[C@@H](CC(=O)O)C(=O)N[C@@H](CCCCN)C(=O)N[C@@H](CCCCN)C(=O)N[C@@H](CC(C)C)C(=O)NCC(=O)N[C@@H](CO)C(=O)NCC(=O)N[C@@H](CO)C(=O)NCC(=O)N[C@@H](CCCCNC(=O)CCC(=O)O[C@H]1CC[C@@]2(C)C(=CC[C@H]3[C@@H]4CC[C@H]([C@H](C)CCCC(C)C)[C@@]4(C)CC[C@@H]32)C1)C(N)=O [Compound 20] (Ac-SDEFDKKIEEVNKKIEESLKKIEESDKKLGSGSGK(Succinyl(4-O-cholesteryl))-NH2)	6800	19100	4.27	7.47
CC[C@H](C)[C@H](NC(=O)[C@H](CCCCN)NC(=O)[C@H](CCCCN)NC(=O)[C@H](CC(C)C)NC(=O)[C@H](CO)NC(=O)[C@H](CCC(=O)O)NC(=O)[C@H](CCC(=O)O)NC(=O)[C@@H](NC(=O)[C@H](CCCCN)NC(=O)[C@H](CCCCN)NC(=O)[C@H](CC(N)=O)NC(=O)[C@@H](NC(=O)[C@H](CCC(=O)O)NC(=O)[C@H](CCC(=O)O)NC(=O)[C@@H](NC(=O)[C@H](CCCCN)NC(=O)[C@H](CCCCN)NC(=O)[C@H](CC(=O)O)NC(=O)[C@H](Cc1ccccc1)NC(=O)[C@H](CCC(=O)O)NC(=O)[C@H](CC(=O)O)NC(=O)[C@H](Cc1c[nH]c2ccccc12)NC(C)=O)[C@@H](C)CC)C(C)C)[C@@H](C)CC)C(=O)N[C@@H](CCC(=O)O)C(=O)N[C@@H](CCC(=O)O)C(=O)N[C@@H](CO)C(=O)N[C@@H](CC(=O)O)C(=O)N[C@@H](CCCCN)C(=O)N[C@@H](CCCCN)C(=O)N[C@@H](CC(C)C)C(=O)N[C@@H](Cc1c[nH]cn1)C(=O)N[C@@H](CC(N)=O)C(=O)N[C@H](C(=O)N[C@@H](CCC(=O)O)C(=O)N[C@@H](C)C(=O)N[C@@H](C)C(=O)N[C@@H](C)C(=O)N[C@@H](CCCCN)C(=O)N[C@@H](CCCCNC(=O)CCC(=O)O[C@H]1CC[C@@]2(C)C(=CC[C@H]3[C@@H]4CC[C@H]([C@H](C)CCCC(C)C)[C@@]4(C)CC[C@@H]32)C1)C(N)=O)C(C)C [Compound 44] (Ac-WDEFDKKIEEVNKKIEESLKKIEESDKKLHNVEAAAKK(Succinyl(4-O-cholesteryl))-NH2)	6860	149	6.6	14.6
